Converted amounts (≈) assume the structure as drawn.
Experiments:
[1] = Cmax in mouse RAW264.7 cells at 77 uM incubated for 8 hrs by UHPLC-HRMS analysis; assay type: ADME, cell-based
[2] = Tmax in mouse RAW264.7 cells at 77 uM incubated for 8 hrs by UHPLC-HRMS analysis; assay type: ADME, cell-based
[3] = Half life in mouse RAW264.7 cells at 77 uM incubated for 8 hrs by UHPLC-HRMS analysis; assay type: ADME, cell-based
[4] = tested on: Mycobacterium tuberculosis; assay: Antitubercular activity against Mycobacterium tuberculosis H37Rv by resazurin dye based microtiter plate assay; assay type: functional
[5] = Cytotoxicity against human HeLa cells assessed as cytolytic effect incubated for 72 hrs by methylene blue staining based colorimetric analysis; assay type: toxicity, cell-based
[6] = Selectivity index, ratio of CC50 for cytotoxicity against human HeLa cells to MIC for antitubercular activity against Mycobacterium tuberculosis H37Rv; assay type: toxicity, cell-based; conditions: read-out: Selectivity Index
[7] = Metabolic stability in human liver microsomes assessed as half life at 20 uM measured upto 90 mins in presence of NADP regenerating system by high-resolution mass spectrometry; assay type: ADME, Microsome
[8] = Metabolic stability in human liver microsomes assessed as intrinsic clearance at 20 uM measured upto 90 mins in presence of NADP regenerating system by high-resolution mass spectrometry; assay type: ADME, Microsome; conditions: read-out: CLH
[9] = Metabolic stability in human liver assessed as intrinsic clearance at 20 uM measured upto 90 mins in presence of NADP regenerating system by high-resolution mass spectrometry; assay type: ADME, tissue-based; conditions: read-out: CLH
[10] = Metabolic stability in human liver microsomes assessed as hepatic extraction ratio at 20 uM measured upto 90 mins in presence of NADP regenerating system by high-resolution mass spectrometry; assay type: ADME, Microsome; conditions: read-out: ERH
[11] = Cmax in BALB/cAnNCrl mouse at 250 mg/kg, po measured upto 24 hrs by UHPLC-HRMS analysis; assay type: ADME, organism-based; conditions: in vivo
[12] = Tmax in BALB/cAnNCrl mouse at 250 mg/kg, po measured upto 24 hrs by UHPLC-HRMS analysis; assay type: ADME, organism-based; conditions: in vivo
[13] = AUC (0 to infinity) in BALB/cAnNCrl mouse at 250 mg/kg, po measured upto 24 hrs by UHPLC-HRMS analysis; assay type: ADME, organism-based; conditions: in vivo
[14] = Apparent volume of distribution during terminal phase in BALB/cAnNCrl mouse at 250 mg/kg, po measured upto 24 hrs by UHPLC-HRMS analysis; assay type: ADME, organism-based; conditions: in vivo, read-out: Vz/F
[15] = Half life in BALB/cAnNCrl mouse at 250 mg/kg, po measured upto 24 hrs by UHPLC-HRMS analysis; assay type: ADME, organism-based; conditions: in vivo
[16] = Apparent oral clearance in BALB/cAnNCrl mouse at 250 mg/kg measured upto 24 hrs by UHPLC-HRMS analysis; assay type: ADME, organism-based; conditions: in vivo
[17] = tested on: Mycobacterium tuberculosis; assay: Antitubercular activity against Mycobacterium tuberculosis H37Rv infected in BALB/c mouse assessed as reduction of colony forming unit in lung administered once daily for 6 weeks by agar dilution method; assay type: functional, organism-based; conditions: dose 25-250 mg/kg/day, route po
[18] = tested on: Mycobacterium tuberculosis; assay: Antitubercular activity against Mycobacterium tuberculosis H37Rv infected in BALB/c mouse assessed as reduction of colony forming unit in spleen administered once daily for 6 weeks by agar dilution method; assay type: functional, organism-based; conditions: dose 25-250 mg/kg/day, route po
[19] = Toxicity in BALB/c mouse infected with Mycobacterium tuberculosis H37Rv assessed as drug tolerance at 25 to 250 mg/kg/day, po qd administered for 6 weeks; assay type: organism-based; conditions: in vivo, 1008 h, dose 25-250 mg/kg/day
[20] = Drug metabolism in BALB/c cAnNCrl mouse assessed as HMC metabolite formation at 250 mg/kg, po measured upto 24 hrs by UHPLC-HRMS analysis; assay type: ADME, organism-based; conditions: in vivo
[21] = Stability in mouse RAW264.7 cells assessed as parent compound remaining at 77 uM after 8 hrs by UHPLC-HRMS analysis; assay type: ADME, cell-based; conditions: read-out: Stability
[22] = Drug metabolism in cattle assessed as hydride meisenheimer complex formation by UHPLC-HRMS analysis; assay type: ADME, Bos taurus
[23] = Drug metabolism in rat assessed as hydride meisenheimer complex formation by UHPLC-HRMS analysis; assay type: ADME
[24] = Drug metabolism in sheep assessed as hydride meisenheimer complex formation by UHPLC-HRMS analysis; assay type: ADME, Ovis aries
[25] = Drug metabolism in goat assessed as hydride meisenheimer complex formation by UHPLC-HRMS analysis; assay type: ADME, Capra hircus
[26] = Drug metabolism in CD1 mouse heart assessed as hydride meisenheimer complex formation by UHPLC-HRMS analysis; assay type: ADME, tissue-based
[27] = Drug metabolism in CD1 mouse brain assessed as hydride meisenheimer complex formation by UHPLC-HRMS analysis; assay type: ADME, tissue-based
[28] = Drug metabolism in CD1 mouse liver assessed as hydride meisenheimer complex formation by UHPLC-HRMS analysis; assay type: ADME, tissue-based
[29] = Drug metabolism in CD1 mouse lung assessed as hydride meisenheimer complex formation by UHPLC-HRMS analysis; assay type: ADME, tissue-based
[30] = Drug metabolism in CD1 mouse spleen assessed as hydride meisenheimer complex formation by UHPLC-HRMS analysis; assay type: ADME, tissue-based
[31] = Drug metabolism in CD1 mouse muscle assessed as hydride meisenheimer complex formation by UHPLC-HRMS analysis; assay type: ADME, tissue-based, Muscle tissue
[32] = Drug metabolism in CD1 mouse kidney assessed as hydride meisenheimer complex formation by UHPLC-HRMS analysis; assay type: ADME, tissue-based
[33] = Drug metabolism in CD1 mouse blood assessed as hydride meisenheimer complex formation by UHPLC-HRMS analysis; assay type: ADME, tissue-based

| Structure (SMILES) | MIC [4] [µM] | CC50 at 72 h [5] [µM] | selectivity ratio [6] | half-life at 20 µM [7] [min] | microsomal CLint at 20 µM [8] [µL/min/mg] | CLint scaled at 20 µM [9] [mL/min/kg] | hepatic extraction ratio at 1.5 h, 20 µM [10] | also measured |
| --- | --- | --- | --- | --- | --- | --- | --- | --- |
| C[C@H]1COC2(CCN(c3nc(=O)c4cc(C(F)(F)F)cc(N)c4s3)CC2)O1 |  |  |  |  |  |  |  | Cmax at 77 µM [1]: 2000 ng/mL; Tmax at 77 µM [2]: 8 h; half-life at 77 µM [3]: 780 min |
| Cc1c(C(F)(F)F)cc2c(=O)nc(N3CCC4(CC3)OC[C@H](C)O4)sc2c1[N+](=O)[O-] | 0.842 (≈ 0.375 µg/mL) | 87 | 104 | 165 | 8.5 | 9.8 | 0.329 |  |
| Cc1c(C(F)(F)F)cc2c(=O)nc(N3CCN(CC4CCCCC4)CC3)sc2c1[N+](=O)[O-] | 0.797 (≈ 0.375 µg/mL) | 64 | 80 |  |  |  |  |  |
| Cc1c(C(F)(F)F)cc([N+](=O)[O-])c2sc(N3CCC(Oc4ccc(OC(F)(F)F)cc4)CC3)nc(=O)c12 | 0.91 (≈ 0.5 µg/mL) | > 91 | 100 | 34.3 | 40.8 | 47.1 | 0.702 |  |
| Cc1c(C(F)(F)F)cc2c(=O)nc(N3CCN(S(=O)(=O)c4ccc(OC(F)(F)F)cc4)CC3)sc2c1[N+](=O)[O-] | > 6.68 | > 84 | 13 |  |  |  |  |  |
| O=c1nc(N2CCC(Oc3ccc(OC(F)(F)F)cc3)CC2)sc2c([N+](=O)[O-])cc(C(F)(F)F)cc12 | 0.0056 (≈ 0.003 µg/mL) | > 93 | 16700 |  |  |  |  |  |
| Cc1c(C(F)(F)F)c(C)c2c(=O)nc(N3CCC4(CC3)OC[C@H](C)O4)sc2c1[N+](=O)[O-] | 4.35 (≈ 2 µg/mL) | 93 | 21 |  |  |  |  |  |
| O=c1nc(N2CCN(CC3CCCCC3)CC2)sc2c([N+](=O)[O-])cc(C(F)(F)F)cc12 [MACOZINONE] | 0.0011 (≈ 0.000502 µg/mL) | > 110 | 100000 |  |  |  |  |  |
| O=c1nc(N2CCN(S(=O)(=O)c3ccc(OC(F)(F)F)cc3)CC2)sc2c([N+](=O)[O-])cc(C(F)(F)F)cc12 | 0.108 (≈ 0.0631 µg/mL) | 43 | 397 |  |  |  |  |  |
| Cc1c(C(F)(F)F)cc([N+](=O)[O-])c2sc(N3CCN(CC4CCCCC4)CC3)nc(=O)c12 | 0.056 (≈ 0.0263 µg/mL) | 53 | 50000 | 41.5 | 33.7 | 39 | 0.661 |  |
| Cc1c(C(F)(F)F)cc([N+](=O)[O-])c2sc(N3CCC4(CC3)OC[C@H](C)O4)nc(=O)c12 | 0.053 (≈ 0.0236 µg/mL) | > 110 | 8330 | 102 | 13.7 | 15.9 | 0.443 | Cmax at 77 µM [1]: 504 ng/mL; Tmax at 77 µM [2]: 0.17 h; half-life at 77 µM [3]: 1210 min; Cmax [11]: 2410 ng/mL; Tmax [12]: 30 min; AUC [13]: 15600 ng·h/mL; Vd/F [14]: 108 L/kg; half-life [15]: 276 min; CL/F [16]: 267 mL/min/kg; Activity [17]: Dose-Dependent Effect; Activity [18]: Dose-Dependent Effect; Activity [19]: Non-Toxic; Drug metabolism [20]: Metabolite_Notdetected; remaining at 8 h, 77 µM [21]: 76.6% |
| C[C@H]1COC2(CCN(c3nc(=O)c4cc(C(F)(F)F)cc([N+](=O)[O-])c4s3)CC2)O1 [BTZ-043] | 0.00348 (≈ 0.0015 µg/mL) | > 120 | 33300 |  |  |  |  | Cmax at 77 µM [1]: 3950 ng/mL; Tmax at 77 µM [2]: 0 h; half-life at 77 µM [3]: 138 min; Drug metabolism [22]: Metabolite_Detected; Drug metabolism [23]: Metabolite_Detected; Drug metabolism [24]: Metabolite_Detected; Drug metabolism [25]: Metabolite_Detected; Drug metabolism [26]: Metabolite_Detected; Drug metabolism [27]: Metabolite_Detected; Drug metabolism [28]: Metabolite_Detected; Drug metabolism [29]: Metabolite_Detected; Drug metabolism [30]: Metabolite_Detected; Drug metabolism [31]: Metabolite_Detected; Drug metabolism [32]: Metabolite_Detected; Drug metabolism [33]: Metabolite_Detected |
| Cc1c(C(F)(F)F)cc([N+](=O)[O-])c2sc(N3CCN(S(=O)(=O)c4ccc(OC(F)(F)F)cc4)CC3)nc(=O)c12 | > 6.68 | > 84 | 13 |  |  |  |  |  |
| C#Cc1c(C(F)(F)F)cc([N+](=O)[O-])c2sc(N3CCC4(CC3)OC[C@H](C)O4)nc(=O)c12 | > 8.78 | 9 | 1 |  |  |  |  |  |
| Cc1c(C(F)(F)F)cc2c(=O)nc(N3CCC(Oc4ccc(OC(F)(F)F)cc4)CC3)sc2c1[N+](=O)[O-] | 3.64 (≈ 2 µg/mL) | > 91 | 25 | 68 | 20.6 | 23.8 | 0.543 |  |

Source: ChEMBL document CHEMBL5528018, “Whole cell hydride Meisenheimer complex biotransformation guided optimization of antimycobacterial benzothiazinones” (Eur J Med Chem, 2024)
